Reference: ChEMBL document CHEMBL3596115, “Discovery of novel guanidinophenylpyrazole human acrosin inhibitors by molecular hybridization” (Medchemcomm, 2014)

Columns and labels:
Acrosin = Acrosin (Homo sapiens, UniProt P10323); assay: Inhibition of acrosin in human liquefied human semen using BAPNA incubated at 37.8 degC for 3 hrs by spectrophotometry
[1] = Inhibition of pig trypsin; parameters: species or system Sus scrofa

Acrosin, sequence (P10323 20-42 limits assumed): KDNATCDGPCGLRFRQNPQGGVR
Acrosin, sequence (P10323 43-343 limits assumed): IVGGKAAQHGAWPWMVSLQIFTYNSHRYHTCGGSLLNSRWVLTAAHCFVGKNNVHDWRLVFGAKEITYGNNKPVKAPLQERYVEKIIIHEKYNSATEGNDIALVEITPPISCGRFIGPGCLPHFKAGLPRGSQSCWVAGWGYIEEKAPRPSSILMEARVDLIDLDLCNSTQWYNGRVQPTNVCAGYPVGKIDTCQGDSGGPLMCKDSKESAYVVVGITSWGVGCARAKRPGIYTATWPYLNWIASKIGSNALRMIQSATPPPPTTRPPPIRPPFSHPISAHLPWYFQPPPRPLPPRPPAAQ

IC50 (Acrosin) [µM] | IC50 [1] [µM] | SMILES
2.41 |  | COC(=O)c1ccc(OC(=O)c2ccc(NC(=N)N)cc2)cc1
24.5 |  | N=C(N)Nc1ccc(-c2cc(C(=O)Nc3ccc(F)cc3)n[nH]2)cc1
15.1 |  | N=C(N)Nc1ccc(-c2cc(C(=O)Nc3ccccc3)n[nH]2)cc1
2.38 |  | COc1ccc(NC(=O)c2cc(-c3ccc(NC(=N)N)cc3)[nH]n2)c(OC)c1
1.26 | 2100 | COc1ccc(OC)c(NC(=O)c2cc(-c3ccc(NC(=N)N)cc3)[nH]n2)c1
9.43 |  | Cc1cccc(NC(=O)c2cc(-c3ccc(NC(=N)N)cc3)[nH]n2)c1
11.3 |  | COc1ccc(NC(=O)c2cc(-c3ccc(NC(=N)N)cc3)[nH]n2)cc1
17.7 |  | N=C(N)Nc1ccc(-c2cc(C(=O)Nc3cccc(Cl)c3)n[nH]2)cc1
16.1 |  | N=C(N)Nc1ccc(-c2cc(C(=O)Nc3ccc(Br)cc3)n[nH]2)cc1
5.73 |  | CCOC(=O)c1ccccc1NC(=O)c1cc(-c2ccc(NC(=N)N)cc2)[nH]n1
25.4 |  | N=C(N)Nc1ccc(-c2cc(C(=O)Nc3ccc4c(c3)OCCO4)n[nH]2)cc1
10.9 |  | Cc1ccccc1NC(=O)c1cc(-c2ccc(NC(=N)N)cc2)[nH]n1
9.46 |  | Cc1cc(C)cc(NC(=O)c2cc(-c3ccc(NC(=N)N)cc3)[nH]n2)c1
23.9 |  | N=C(N)Nc1ccc(-c2cc(C(=O)Nc3ccc(Cl)cc3)n[nH]2)cc1
8.45 |  | Cc1cccc(NC(=O)c2cc(-c3ccc(NC(=N)N)cc3)[nH]n2)c1C
23.7 |  | N=C(N)Nc1ccc(-c2cc(C(=O)Nc3cccc(C(F)(F)F)c3)n[nH]2)cc1
7.47 |  | Cc1ccc(C)c(NC(=O)c2cc(-c3ccc(NC(=N)N)cc3)[nH]n2)c1
25.9 |  | CCN(CC)c1ccc(NC(=O)c2cc(-c3ccc(NC(=N)N)cc3)[nH]n2)cc1
13.1 |  | N=C(N)Nc1ccc(-c2cc(C(=O)Nc3cccc(Br)c3)n[nH]2)cc1
24.4 |  | N=C(N)Nc1ccc(-c2cc(C(=O)Nc3cccc4ccccc34)n[nH]2)cc1
5.87 |  | CC(C)(C)c1ccc(NC(=O)c2cc(-c3ccc(NC(=N)N)cc3)[nH]n2)cc1
4.32 |  | Cc1cccc(C)c1NC(=O)c1cc(-c2ccc(NC(=N)N)cc2)[nH]n1
3.44 |  | COc1ccc(NC(=O)c2cc(-c3ccc(NC(=N)N)cc3)[nH]n2)cc1OC
28.3 |  | N=C(N)Nc1ccc(-c2cc(C(=O)Nc3ccc(O)cc3)n[nH]2)cc1
26.8 |  | N=C(N)Nc1ccc(-c2cc(C(=O)Nc3ccc(Nc4ccccc4)cc3)n[nH]2)cc1
2.42 |  | COc1cccc(NC(=O)c2cc(-c3ccc(NC(=N)N)cc3)[nH]n2)c1
16.6 |  | N=C(N)Nc1ccc(-c2cc(C(=O)Nc3ccc(C(F)(F)F)cc3)n[nH]2)cc1

SMILES | IC50 (Acrosin) [µM] | IC50 [1] [µM]
CCOC(=O)c1cc(-c2ccc(NC(=N)N)cc2)[nH]n1 | > 100 | 
N=C(N)Nc1ccc(-c2cc(C(=O)O)n[nH]2)cc1 | > 100 | 
